Measured values published in patent US20230041743A1, “1,8-NAPHTHYRIDIN-2-ONE COMPOUNDS FOR THE TREATMENT OF AUTOIMMUNE DISEASE” (Hoffmann-La Roche Inc., priority 2019, published 2023).

Key:
human TLR8 = molecular target: T1, human TLR8 (Homo sapiens, UniProt Q9NR97); experiment: HEK293-Blue-hTLR-8 cells assay (SEAP reporter, R848 stimulation); assay type: cell-based; details: HEK293-Blue-hTLR8 cells, R848 ligand, 20 hrs incubation; read-out: HEK/hTLR8 IC50
T1 construct: host or cells: HEK293 (HEK-Blue hTLR8)
T1 sequence (Q9NR97 27-1041): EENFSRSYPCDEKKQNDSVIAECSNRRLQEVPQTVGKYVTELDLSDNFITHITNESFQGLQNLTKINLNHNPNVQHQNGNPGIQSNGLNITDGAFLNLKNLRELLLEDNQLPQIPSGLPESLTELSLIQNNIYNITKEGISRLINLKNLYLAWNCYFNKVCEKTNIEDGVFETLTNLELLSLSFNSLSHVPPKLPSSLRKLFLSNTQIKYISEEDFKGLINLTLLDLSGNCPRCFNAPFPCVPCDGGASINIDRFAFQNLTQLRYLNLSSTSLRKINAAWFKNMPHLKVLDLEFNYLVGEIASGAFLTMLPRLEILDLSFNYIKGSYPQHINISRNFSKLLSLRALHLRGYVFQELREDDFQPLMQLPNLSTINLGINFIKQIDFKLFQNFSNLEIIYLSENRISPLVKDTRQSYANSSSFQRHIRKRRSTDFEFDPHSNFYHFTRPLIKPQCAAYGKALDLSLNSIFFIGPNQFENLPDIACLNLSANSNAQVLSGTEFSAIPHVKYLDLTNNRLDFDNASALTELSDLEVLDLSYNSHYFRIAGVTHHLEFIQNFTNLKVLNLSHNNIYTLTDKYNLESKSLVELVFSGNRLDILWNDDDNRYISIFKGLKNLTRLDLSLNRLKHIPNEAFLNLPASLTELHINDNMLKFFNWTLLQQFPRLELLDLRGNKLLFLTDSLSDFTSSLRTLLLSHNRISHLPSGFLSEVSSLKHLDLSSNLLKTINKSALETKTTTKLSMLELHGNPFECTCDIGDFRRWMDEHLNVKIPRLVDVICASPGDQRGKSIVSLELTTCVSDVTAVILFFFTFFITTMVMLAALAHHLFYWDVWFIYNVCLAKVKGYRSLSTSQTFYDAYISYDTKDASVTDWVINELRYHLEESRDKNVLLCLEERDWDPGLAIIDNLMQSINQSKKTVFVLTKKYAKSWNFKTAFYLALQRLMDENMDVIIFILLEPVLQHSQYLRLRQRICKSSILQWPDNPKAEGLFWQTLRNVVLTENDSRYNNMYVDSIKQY
Source text: HEK293-Blue-hTLR-8 Cells Assay:
A stable HEK293-Blue-hTLR-8 cell line was purchased from InvivoGen (Cat. #: hkb-htlr8, San Diego, Calif., USA). These cells were originally designed for studying the stimulation of human TLR8 by monitoring the activation of NF-κB. A SEAP (secreted embryonic alkaline phosphatase) reporter gene was placed under the control of the IFN-β minimal promoter fused to five NF-κB and AP-1-binding sites. The SEAP was induced by activating NF-κB and AP-1 via stimulating HEK-Blue hTLR8 cells with TLR8 ligands. Therefore the reporter expression was declined by TLR8 antagonist under the stimulation of a ligand, such as R848, for incubation of 20 hrs. The cell culture supernatant SEAP reporter activity was determined using QUANTI-Blue™ kit (Cat. #: rep-qb1, Invivogen, San Diego, Ca, USA) at a wavelength of 640 nm, a detection medium that turns purple or blue in the presence of alkaline phosphatase.
HEK293-Blue-hTLR8 cells were incubated at a density of 250,000-450,000 cells/mL in a volume of 170 μL in a 96-well plate in Dulbecco's Modified Eagle's medium (DMEM) containing 4.5 g/L glucose, 50 U/mL penicillin, […], […], 2 mM L-glutamine, 10% (v/v) heat-inactivated fetal bovine serum with addition of 20 μL test compound in a serial dilution in the presence of final DMSO at 1% and 10 μL of 60 uM R848 in above DMEM, perform incubation under 37° C. in a CO2 incubator for 20 hrs. Then 20 μL of the supernatant from each well was incubated with 180 μL Quanti-blue substrate solution at 37° C. for 2 hrs and the absorbance was read at 620-655 nm using a spectrophotometer. The signaling pathway that TLR8 activation leads to downstream NF-κB activation has been widely accepted, and therefore similar reporter assay was modified for evaluating TLR8 antagonist.

[1] = Human microsomal stability assay; assay type: in vitro ADME; details: human liver microsomes, 1 μM test compound, 0.5 mg/mL protein, 37° C.; low <7.0, medium 7.0-16.2, high 16.2-23.2
Procedure: Human Microsomal Stability Assay
Human liver microsomes (Cat. NO.: 452117, Corning, USA) were preincubated with test compound for 10 minutes at 37° C. in 100 mM potassium phosphate buffer, pH 7.4. The reactions were initiated by adding NADPH regenerating system. The final incubation mixtures contained 1 μM test compound, 0.5 mg/mL liver microsomal protein, 1 mM MgCl2, 1 mM NADP, 1 unit/mL isocitric dehydrogenase and 6 mM isocitric acid in 100 mM potassium phosphate buffer, pH 7.4. After incubation times of 0, 3, 6, 9, 15 and 30 minutes at 37° C., 300 μL of cold ACN (including internal standard) was added to 100 μL incubation mixture to terminate the reaction. Following precipitation and centrifugation, 100 uL supernatant will be taken out and added 300 uL water.
The amount of compound remaining in the samples was determined by LC-MS/MS. Controls of no NADPH regenerating system at zero and 30 minutes were also prepared and analyzed. The results were categorized as: low (<7.0 mL/min/kg), medium (7.0-16.2 mL/min/kg) and high (16.2-23.2 mL/min/kg).

SMILES | IC50 (human TLR8) | CL (h) [1]
C[C@@H]1CN(c2cc(=O)n(C)c3ncccc23)C[C@@H]2c3ccc(C4CCCNC4)cc3CN12 (stereo partly drawn) [Example 25, 4-[(4R,10bS)-4-methyl-8-(3-piperidyl)-3,4,6,10b-tetrahydro-1H-pyrazino[2,1-a]isoindol-2-yl]-1-methyl-1,8-naphthyridin-2-one] | 2.6 nM | 6.2 mL/min/kg
C[C@@H]1CN(c2cc(=O)n(C)c3ncccc23)C[C@@H]2c3ccc(C4CCNC4)cc3CN12 (stereo partly drawn) [Example 26, 4-[(4R,10bS)-4-methyl-8-pyrrolidin-3-yl-3,4,6,10b-tetrahydro-1H-pyrazino[2,1-a]isoindol-2-yl]-1-methyl-1,8-naphthyridin-2-one] | 6.5 nM | 9.8 mL/min/kg
C[C@@H]1CN(c2cc(=O)n(C)c3ncccc23)C[C@@H]2c3ccc([C@H]4CC[C@H](N5CCOCC5)CC4)cc3CN12 [Example 27A, 4-[(4R,10bS)-4-methyl-8-(trans-4-morpholinocyclohexyl)-3,4,6,10b-tetrahydro-1H-pyrazino[2,1-a]isoindol-2-yl]-1-methyl-1,8-naphthyridin-2-one] | 2 nM | 7.3 mL/min/kg
C[C@@H]1CN(c2cc(=O)n(C)c3ncccc23)C[C@@H]2c3ccc([C@H]4C[C@H]5COC[C@@H](C4)N5)cc3CN12 [Example 28A, 4-[(4R,10bS)-4-methyl-8-(endo-3-oxa-9-azabicyclo[3.3.1]nonan-7-yl)-3,4,6,10b-tetrahydro-1H-pyrazino[2,1-a]isoindol-2-yl]-1-methyl-1,8-naphthyridin-2-one] | 1.7 nM | 9.2 mL/min/kg
CCn1c(=O)cc(N2C[C@@H](C)N3Cc4cc(N5C[C@@H](N)[C@H](OC)C5)ccc4[C@H]3C2)c2cccnc21 [Example 29, 4-[(4R,10bS)-8-[(3R,4R)-3-amino-4-methoxy-pyrrolidin-1-yl]-4-methyl-3,4,6,10b-tetrahydro-1H-pyrazino[2,1-a]isoindol-2-yl]-1-ethyl-1,8-naphthyridin-2-one] | 26.3 nM | 6.4 mL/min/kg
